Data on one molecule can be found in patent US20180117006A1, “ANTI-FUGETACTIC AGENT AND IMMUNOTHERAPY AGENT COMBINATION THERAPY AND COMPOSITIONS FOR THE TREATMENT OF CANCER” (THE GENERAL HOSPITAL CORPORATION, priority 2015, published 2018).

In this test the test system is tumor that expresses high levels of CXCL12. Briefly: Tumor growth in mice with a subcutaneous CXCL12-expressing tumor. The settings on record: AMD3100 subcutaneous once a day for 5 days, then NK-92 cells intraperitoneal one to three days after the final dose, contemplated synergistic effect. The class given is in vivo. The method, then: Mice are injected with tumor cells (subcutaneous injection) from a tumor that expresses high levels of CXCL12 and a tumor allowed to develop. Once the tumor has formed, the mice are injected (subcutaneous in the same flank as the tumor) with AMD3100 or vehicle, once a day for 5 days.
One to three days after the final dose of AMD3100, mice are injected via intraperitoneal injection with NK-92 cells or vehicle 18 hours prior to assay of tumor growth. Tumor growth in mice is delayed by NK-92 cell treatment, but resumes soon after the treatment is discontinued in mice that were not administered AMD3100.

The structures appear in SMILES notation.

As for `c1cc(CN2CCCNCCNCCCNCC2)ccc1CN1CCCNCCNCCCNCC1` [AMD3100], the “Delay in tumor growth (co-treatment)” value is recorded as “longer than NK-92 cells alone”.
